Measured values from publication PMC8583996, “Berberine Inhibits MDA-MB-231 Cells as an Agonist of G Protein-Coupled Estrogen Receptor 1” (International Journal of Molecular Sciences, 2021).
pKd: −log10 of the molar value.

Molecular target: T1, human GPER1 (Homo sapiens, UniProt Q99527)
T1 construct: Sf9 baculovirus; Ni-NTA (tag not described) and size exclusion; DDM/CHS; primarily monomer
Assay: intrinsic fluorescence quenching titration
Type: binding

T1 sequence (Q99527 whole entry): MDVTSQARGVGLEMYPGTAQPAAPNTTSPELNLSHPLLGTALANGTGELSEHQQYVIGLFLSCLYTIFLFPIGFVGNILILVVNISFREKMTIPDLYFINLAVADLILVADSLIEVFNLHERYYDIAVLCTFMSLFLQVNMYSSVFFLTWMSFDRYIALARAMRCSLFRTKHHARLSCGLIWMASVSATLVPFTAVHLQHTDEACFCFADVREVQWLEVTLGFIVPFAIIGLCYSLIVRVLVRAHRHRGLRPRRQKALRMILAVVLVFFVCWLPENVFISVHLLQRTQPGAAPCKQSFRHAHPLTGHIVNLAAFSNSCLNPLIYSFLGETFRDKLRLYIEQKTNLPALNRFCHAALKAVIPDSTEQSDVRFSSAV

COc1ccc2cc3[n+](cc2c1OC)CCc1cc2c(cc1-3)OCO2 [BBR]
pKd: 9.05
